Source: PMC11433764, “A Novel Compound from the Phenylsulfonylpiperazine Class: Evaluation of In Vitro Activity on Luminal Breast Cancer Cells” (Molecules, 2024)

Legend:
Format in all cases: cell-based
MCF7 = experiment: Wound-healing migration assay
Protocol: Wound-healing analysis was applied to test cell migration ability. MCF7 cells were seeded in a 6-well plate at a density of 1 × 10^6 cells/well and, after confluence, a “wound” in the monolayer was introduced by a sterilized 200 μL pipet tip. Cells were washed with PBS and treated with compound 3 (1.125, 2.25 and 4.5 µM) for 24 or 48 h in a serum-free medium. Cells were photographed at 0 h, 24 or 48 h under a light microscope (Evos®, ThermoFisher Scientific, Waltham, MA, USA) at 10× objective using the same randomly chosen fields. The cell-free area was measured by ImageJ v. 1.54 g software and migration in the control well was considered to be 100%.

[1] = tested on: tumor cells MCF7, MDA-MB-453 and MDA-MB-231; experiment: MTT cell viability, tumor cells (stated collectively); details: 48 h, MTT; tumor cells stated collectively
Protocol: (§1) Four different breast cells lines were used in this study: MCF-10A (non-tumorigenic), MCF7 (ER+ BC), MDA-MB453 (HER2+ BC) and MDA-MB231 (TNBC). All lineages were obtained from the American Type Culture Collection (ATCC; Manassas, VA, USA) and maintained at a temperature of 37 °C according to the supplier’s recommendations. Only MDA-MB231 cells were not kept in an atmosphere of 5% CO2. MCF-10A was grown in Dulbecco’s Modified Eagle’s Medium (DMEM F12, Gibco, ThermoFisher Scientific, Waltham, MA, USA) supplemented with 20 ng/mL epidermal growth factor (Gibco, ThermoFisher Scientific, Waltham, MA, USA), 0.5 μg/mL hydrocortisone (Sigma-Aldrich, Sigma-Aldrich, St. Louis, MO, USA) and 10 μg/mL insulin (Gibco, ThermoFisher Scientific, Waltham, MA, USA). MCF7 was cultivated in Roswell Park Memorial Institute Medium (RPMI-1640, Gibco, ThermoFisher Scientific, Waltham, MA, USA), MDA-MB453 in IMDM and MDA-MB231 in Leibovitz’s medium (L-15, Gibco, ThermoFisher Scientific, Waltham, MA, USA). All media were supplemented with 10% fetal bovine serum (FBS, Gibco, ThermoFisher Scientific, Waltham, MA, USA) and 50 µg/mL of gentamicin (Cultilab, Campinas, SP, Brazil). The cells were confirmed to be free of mycoplasma and passaged using a 0.25% trypsin-EDTA solution when confluency reached 80–90%.
(§2) Cell viability was determined by spectrophotometric quantification of MTT (3-[4,5-dimethyl-thiazol-2-yl]-2,5-diphenyltetrazolium bromide—Invitrogen. Waltham, MA, USA) reduction to formazan crystals. Cells were seeded at the density of 1 × 10^4 cells/well (MCF-10A, MDA-MB453), 1.5 × 10^4 cells/well (MDA-MB231) and 3 × 10^3 cells/well (MCF7) in 96-well culture dishes and incubated with different concentrations of the compounds (1.25, 2.5, 5, 10, 20, 40, 80 and 160 µM) for 48 h. The medium was than replaced by MTT solution (0.5 mg/mL) and plates were kept at 37 °C for 4 h. After the aspiration of the media, the formazan crystals were diluted with 100 μL of dimethyl-sulfoxide (DMSO)/well and the absorbance at 570 nm was measured using a spectrophotometer (Thermo Plate TP-Reader, Waltham, MA, USA). Cytotoxicity was calculated using the following formula: Cytotoxicity (%) = [absorbance of cells treated with the compounds/absorbance of cells treated with DMSO) × 100]. The IC50 was determined for each compound and was defined as the concentration required to inhibit 50% of cell growth, compared to the control sample (cells treated with DMSO 0.05%).
(§3) Data were presented as the mean ± standard deviation (SD) and analyzed using GraphPad Prism 9.0 software (GraphPad Software Inc., La Jolla, CA, USA). All data were assayed in triplicate. Statistical analysis was performed using one-way ANOVA, Tukey´s HSD post hoc test and Student’s t-test. The IC50 was calculated using non-linear regression and the selectivity index (SI) was calculated by the ratio between the IC50 values corresponding to the non-tumor cell lineage (MCF-10A) and the IC50 values corresponding to the BC cell lines. Statistical significance was accepted at p values < 0.05.

ENTPD2 = experiment: qPCR, ENTPD2 expression in MCF7; details: vs untreated cells
Protocol: (§4) Total RNA was extracted using Trizol reagent (Invitrogen), according to the manufacturer’s protocol. The quality of extracted RNA was verified by the spectrophotometric readings at 260 and 280 nm (Nanodrop 1000-ThermoFisher), and the first strand of cDNA was synthesized from 1 µg of total RNA via reverse transcription using GoScript™ Reverse Transcription Mix (Promega, Madison, WI, EUA). qPCR analysis was performed using 5.0 μL of Power SYBR Green PCR Master Mix (Applied Biosystems, Carlsbad, CA, USA) and run on a StepOnePlus Systems (Applied Biosystems, Carlsbad, CA, USA) device with the following cycling parameters: 40 cycles of 95 °C for 10 s and 60 °C for 30 s. The comparative Cq was used to find the relative expression of CDH1 (E-caderina), ENTPD1 (ectonucleoside triphosphate diphosphohydrolase 1), ENTPD2 (ectonucleoside triphosphate diphosphohydrolase 2), ENTPD3 (ectonucleoside triphosphate diphosphohydrolase 3), ENTPD5 ([…]) and KRT10 (keratin 10) genes, after relative standard curve optimization. β-2-microglobulin (β2M) was used as a reference gene. The primer sequences are described in Table 3.

MDA-MB-453 = experiment: MTT cell viability, MDA-MB-453
Protocol: as §1, §2, §3

MCF-10A = experiment: MTT cell viability, non-tumor cell line MCF-10A; details: Homo sapiens, MCF-10A, 48 h, 1.25–160 μM, read-out: IC50 MCF-10A
Protocol: as §1, §2, §3

CDH1 = experiment: qPCR, CDH1 expression in MCF7; details: vs untreated cells
Protocol: as §4

MDA-MB-231 = experiment: MTT cell viability, MDA-MB-231
Protocol: as §1, §2, §3

Compound: O=C(c1ccc(-n2cnnn2)cc1)N1CCN(S(=O)(=O)c2ccc(Cl)cc2)CC1 [Compound 3, (4-(1H-tetrazol-1-yl)phenyl)(4-((4-chlorophenyl)sulfonyl)piperazin-1-yl)methanone]
- Migration of MCF7 cells (MCF7; 1.13, 2.25 and 4.50 µM, 48 h): significantly inhibited
- Migration of MCF7 cells (MCF7; 2.25 and 4.50 µM, 24 h): significantly inhibited
- IC50 [1]: < 50 µM
- Fold Change ENTPD2 mRNA (ENTPD2; MCF7, 1.125 µM): 1.374
- Fold Change ENTPD2 mRNA (ENTPD2; MCF7, 2.25 µM): 1.417
- Fold Change ENTPD2 mRNA (ENTPD2; MCF7, 4.5 µM): 1.109
- IC50 (MDA-MB-453; Homo sapiens, MDA-MB-453, 48 h, MTT, 1.25–160 μM, read-out: IC50 MDA-MB-453): 80 µM
- SI MDA-MB-453 (MDA-MB-453; IC50 MCF10A / IC50 MDA-MB-453): >2.00
- IC50 (MCF-10A): > 160 µM
- Fold Change CDH1 mRNA (CDH1; MCF7, 1.125 µM): 1.874
- Fold Change CDH1 mRNA (CDH1; MCF7, 2.25 µM): 1.045
- IC50 (MDA-MB-231; Homo sapiens, MDA-MB-231, 48 h, MTT, 1.25–160 μM, read-out: IC50 MDA-MB-231): 83 µM
- SI MDA-MB-231 (MDA-MB-231; IC50 MCF10A / IC50 MDA-MB-231): >1.93
